Test results: patent publication US12240844B2 (Voronoi, Inc., priority 2019, dated 2025)

Experiments:
human GST-CLK1 (129-end) = molecular target: T1, human GST-CLK1 (129-end) (Homo sapiens, UniProt P49759); experiment: GST-CLK1 enzyme inhibition, ADP-Glo kinase assay; format: biochemical; conditions: ATP 10 uM
T1 construct: purified human GST-CLK1 (129-end, Signalchem) enzyme; GST; purchased Signalchem
Method: (§1) In order to evaluate the inhibitory activity of the compounds according to the present invention on LRRK2, LRRK2 (G2019S), DYRK1, CLK1 and TTK kinases, the following experiment was performed.
(§2) Example compounds were reacted with the purified human GST-CLK1 (129-end, Signalchem) enzyme to evaluate the enzyme inhibitory ability as follows. As the reaction buffer, the composition of 40 mM Tris-HCl pH 7.4, 20 mM MgCl2, 0.5 mg/mL BSA, and 50 uM DTT was used, and the reaction of all test materials was performed on the reaction buffer. During the test, the human GST-CLK1 (129-end, 3 ng) enzyme, the purified ATP (10 uM), and a specific substrate solution were reacted at 25° C. for 1 hour, and then the enzyme activity was identified using the in vitro ADP-Glo™ kinase assay (promega). Luminescence was measured by reacting the enzyme activity reaction solution, an ADP-Glo reaction solution and the enzyme potency detection solution in a ratio of 2:2:1. The degree of inhibition of enzyme activity according to the treatment concentrations of the respective compounds was calculated based on the fluorescence of the enzyme activity of a solvent control group that was not treated with the compound, where the concentration of each compound to inhibit enzyme activity inhibition by 50% was determined as an IC50 (nM) value. The IC50 of each compound was determined in triplicate data sets and obtained using Prism (version 7.01, GraphPad) software.
(§3) In the table below, the following designations were used for the evaluation of enzyme inhibitory ability.

[1] = molecular target: T2, human GST-DYRK1A (full length) (Homo sapiens, UniProt Q13627); experiment: GST-DYRK1A enzyme inhibition, ADP-Glo kinase assay; format: biochemical; conditions: read-out: DYRK1 IC50
T2 construct: purified human GST-DYRK1A (full length, Thermo scientifics) enzyme; GST; purchased Thermo scientifics
Method: as §1
as §2, with “GST-DYRK1A (full length, Thermo scientifics)” for “GST-CLK1 (129-end, Signalchem)”, “GST-DYRK1A (full length, 10” for “GST-CLK1 (129-end, 3”
as §3

T1 sequence (P49759 129-484 limits assumed): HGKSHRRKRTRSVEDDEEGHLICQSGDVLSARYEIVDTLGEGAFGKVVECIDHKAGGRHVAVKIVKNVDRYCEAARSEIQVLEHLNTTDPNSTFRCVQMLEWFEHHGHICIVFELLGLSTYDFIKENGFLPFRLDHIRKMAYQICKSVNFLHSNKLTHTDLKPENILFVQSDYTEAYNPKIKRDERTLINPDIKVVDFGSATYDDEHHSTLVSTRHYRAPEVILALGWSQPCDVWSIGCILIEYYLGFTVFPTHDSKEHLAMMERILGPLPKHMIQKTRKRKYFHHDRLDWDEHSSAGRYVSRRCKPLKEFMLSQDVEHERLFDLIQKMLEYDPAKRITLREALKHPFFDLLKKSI

Row | IC50 (human GST-CLK1 (129-end)) | IC50 [1] | SMILES
1 | < 100 nM | < 100 nM | COc1cc(S(=O)(=O)N2CCC(N3CCOCC3)CC2)ccc1Nc1cc(NCCS(C)(=O)=O)c2c(Cl)c[nH]c2n1 [Example 79, 3-chloro-N^6-(2-methoxy-4-((morpholinopiperidin-1-yl)sulfonyl)phenyl)-N^4-(2-(methylsulfonyl)ethyl)-1H-pyrrolo[2,3-b]pyridine-4,6-diamine]
2 | 301 to 1000 nM | 301 to 1000 nM | N#Cc1c[nH]c2nc(Nc3ccc(C(=O)N4CCOCC4)c4c3OCCO4)cc(NC3CCC3)c12 [Example 36, 4-(cyclobutylamino)-6-((8-(morpholine-4-carbonyl)-2,3-dihydrobenzo[b] [1,4]dioxin-5-yl)amino)-1H-pyrrolo[2,3-b]pyridine-3-carbonitrile]
3 | 301 to 1000 nM | 301 to 1000 nM | COCCNc1cc(Nc2ccc(S(C)(=O)=O)cc2OC)nc2[nH]cc(Cl)c12 [Example 87, 3-chloro-N^6-(2-methoxy-4-(methylsulfonyl)phenyl)-N^4-(2-methoxyethyl)-1H-pyrrolo[2,3-b]pyridine-4,6-diamine]
4 | 301 to 1000 nM | 301 to 1000 nM | COc1cc(P(C)(C)=O)ccc1Nc1cc(C2CC2)c2c(C#N)c[nH]c2n1 [Example 230, 4-cyclopropyl-6-((4-(dimethylphosphoryl)-2-methoxyphenyl)amino)-1H-pyrrolo[2,3-b]pyridine-3-carbonitrile]
5 | < 100 nM | 301 to 1000 nM | CC(C)Nc1cc(Nc2ccc(C(=O)N3CCOCC3)c3c2OCCO3)nc2[nH]cc(C(F)(F)F)c12 [Example 168, (8-((4-(isopropylamino)-3-(trifluoromethyl)-1H-pyrrolo[2,3-b]pyridin-6-yl)amino)-2,3-dihydrobenzo [b] [1,4]dioxin-5-yl)(morpholino) methanone]
6 | 301 to 1000 nM | 301 to 1000 nM | COc1cc(S(C)(=O)=O)ccc1Nc1cc(NC2CCCCC2)c2c(Cl)c[nH]c2n1 [Example 86, 3-chloro-N^4-cyclohexyl-N^6-(2-methoxy-4-(methylsulfonyl)phenyl)-1H-pyrrolo[2,3-b]pyridine-4,6-diamine]
7 | 301 to 1000 nM | 301 to 1000 nM | COc1cc(S(=O)(=O)N2CCC(N3CCOCC3)CC2)ccc1Nc1cc(NC2CCCCC2)c2c(Cl)c[nH]c2n1 [Example 77, 3-chloro-N^4-cyclohexyl-N^6-(2-methoxy-4-((morpholinopiperidin-1-yl)sulfonyl)phenyl)-1H-pyrrolo[2,3-b]pyridine-4,6-diamine]
8 | 301 to 1000 nM | 101 to 300 nM | CCOCCNc1cc(Nc2ccc(C(=O)N3CCOCC3)c3c2OCCO3)nc2[nH]cc(C(F)(F)F)c12 [Example 166, (8-((4-((2-ethoxyethyl)amino)-3-(trifluoromethyl)-1H-pyrrolo[2,3-b]pyridin-6-yl)amino)-2,3-dihydrobenzo[b] [1,4]dioxin-5-yl)(morpholino) methanone]
9 | 101 to 300 nM | 101 to 300 nM | CCNc1cc(Nc2ccc(C(=O)N3CCN(C4COC4)CC3)c3c2OCCO3)nc2[nH]cc(C#N)c12 [Example 35, 4-(ethylamino)-6-((8-(4-(oxetan-3-yl)piperazine-1-carbonyl)-2,3-dihydrobenzo[b] [1,4]dioxin-5-yl)amino)-1H-pyrrolo[2,3-b]pyridine-3-carbonitrile]
10 | < 100 nM | < 100 nM | CCOCCNc1cc(Nc2ccc(C(=O)N3CCC(N4CCOCC4)CC3)c3c2OCCO3)nc2[nH]cc(C(F)(F)F)c12 [Example 167, (8-((4-((2-ethoxyethyl)amino)-3-(trifluoromethyl)-1H-pyrrolo[2,3-b]pyridin-6-yl)amino)-2,3-dihydrobenzo[b] [1,4]dioxin-5-yl)(4-morpholinopiperidin-1-yl)methanone]
11 | < 100 nM | < 100 nM | O=C(c1ccc(Nc2cc(NC3CCC3)c3c(C(F)(F)F)c[nH]c3n2)c2c1OCCO2)N1CCC(N2CCOCC2)CC1 [Example 176, (8-((4-(cyclobutylamino)-3-(trifluoromethyl)-1H-pyrrolo[2,3-b]pyridin-6-yl)amino)-2,3-dihydrobenzo[b] [1,4]dioxin-5-yl)(4-morpholinopiperidin-1-yl)methanone]
12 | < 100 nM | 301 to 1000 nM | CCCCNc1cc(Nc2ccc(C(=O)N3CCC(N4CCOCC4)CC3)c3c2OCCO3)nc2[nH]cc(C(F)(F)F)c12 [Example 170, (8-((4-(butylamino)-3-(trifluoromethyl)-1H-pyrrolo[2,3-b]pyridin-6-yl)amino)-2,3-dihydrobenzo[b] [1,4]dioxin-5-yl)(4-morpholinopiperidin-1-yl)methanone]
13 | < 100 nM | < 100 nM | CCNc1cc(Nc2ccc(C(=O)N3CCC(N4CCOCC4)CC3)c3c2OCO3)nc2[nH]cc(C#N)c12 [Example 34, 4-(ethylamino)-6-((7-(4-morpholinopiperidine-1-carbonyl)benzo[d] [1,3]dioxol-4-yl)amino)-1H-pyrrolo[2,3-b]pyridine-3-carbonitrile]
14 | 301 to 1000 nM | 301 to 1000 nM | CCCCNc1cc(Nc2ccc(C(=O)N3CCOCC3)c3c2OCCO3)nc2[nH]cc(C(F)(F)F)c12 [Example 169, (8-((4-(butylamino)-3-(trifluoromethyl)-1H-pyrrolo[2,3-b]pyridin-6-yl)amino)-2,3-dihydrobenzo [b] [1,4]dioxin-5-yl)(morpholino) methanone]
15 | 101 to 300 nM | 301 to 1000 nM | O=C(c1ccc(Nc2cc(NC3CCC3)c3c(C(F)(F)F)c[nH]c3n2)c2c1OCCO2)N1CCOCC1 [Example 175, (8-((4-(cyclobutylamino)-3-(trifluoromethyl)-1H-pyrrolo[2,3-b]pyridin-6-yl)amino)-2,3-dihydrobenzo[b] [1,4]dioxin-5-yl)(morpholino) methanone 2,2,2-trifluoroacetate]
16 | 301 to 1000 nM | 301 to 1000 nM | COCCNc1cc(Nc2ccc(S(=O)(=O)N3CCC(N4CCOCC4)CC3)cc2OC)nc2[nH]cc(Cl)c12 [Example 78, 3-chloro-N^6-(2-methoxy-4-((morpholinopiperidin-1-yl)sulfonyl)phenyl)-N^4-(2-methoxyethyl)-1H-pyrrolo[2,3-b]pyridine-4,6-diamine]
17 | 301 to 1000 nM | 301 to 1000 nM | COCCNc1cc(Nc2ccc(S(=O)(=O)N3CCOCC3)cc2OC)nc2[nH]cc(Cl)c12 [Example 71, 3-chloro-N^6-(2-methoxy-4-(morpholinosulfonyl)phenyl)-N^4-(2-methoxyethyl)-1H-pyrrolo[2,3-b]pyridine-4,6-diamine]
18 | 101 to 300 nM | 301 to 1000 nM | CCNc1cc(Nc2ccc(C(=O)N3CCOCC3)c3c2OCO3)nc2[nH]cc(C#N)c12 [Example 33]
19 | 301 to 1000 nM | 301 to 1000 nM | O=C(c1ccc(Nc2cc(NC3CCCCC3)c3c(Cl)c[nH]c3n2)c2c1OCCO2)N1CCOCC1 [Example 61, (8-((3-chloro-4-(cyclohexylamino)-1H-pyrrolo[2,3-b]pyridin-6-yl)amino)-2,3-dihydrobenzo[b] [1,4]dioxin-5-yl)(morpholino) methanone]
